{"source": "patent US6485514B1", "about": "(priority 1997, dated 2002)", "origin": "cited, not measured here", "key": {"[1]": {"tested_on": "human colon cancer xenografts"}, "[2]": {"conditions": "administered intravenously, clinical trials"}, "[3]": {"conditions": "patients"}, "[4]": {"tested_on": "drug-refractory ovarian cancer", "conditions": "in vivo"}, "[5]": {"conditions": "cremaphor vehicle, 6-hour IV infusion"}}, "note": "Like-named read-outs stand apart in the source and are kept apart here."}
{"smiles": "CC[C@@]1(O)C(=O)OCc2c1cc1n(c2=O)Cc2cc3cc4c(cc3nc2-1)OCO4", "note": "[10,11 MD, 10,11-Methylendioxy-20(S)-Camptothecin]", "values": [{"measurement": "anticancer activity against human colon cancer xenografts", "setting": "[1]", "result": "high anticancer activity"}]}
{"smiles": "CC[C@@](O)(C(=O)[O-])c1cc2n(c(=O)c1CO)Cc1cc3ccccc3nc1-2.[Na+]", "note": "[CPT Na+, Camptothecin Sodium Salt]", "values": [{"measurement": "clinical outcome (toxicity and potency)", "setting": "[2]; listed as sodium salt of CPT", "result": "high toxicity and low potency"}, {"measurement": "clinical outcome (toxicity and potency)", "setting": "[2]; Sodium Salt", "result": "ineffectiveness and the toxicity"}]}
{"smiles": "CC[C@@]1(O)C(=O)OCc2c1cc1n(c2=O)Cc2cc3c(N)cccc3nc2-1", "note": "[9AC, 9-Amino-20(S)-Camptothecin]", "values": [{"measurement": "anticancer activity against human colon cancer xenografts", "setting": "[1]", "result": "high anticancer activity"}]}
{"smiles": "CC(=O)O[C@H]1C(=O)[C@@]2(C)[C@H]([C@H](OC(=O)c3ccccc3)[C@]3(O)C[C@H](OC(=O)[C@H](O)[C@@H](NC(=O)c4ccccc4)c4ccccc4)C(C)=C1C3(C)C)[C@]1(OC(C)=O)CO[C@@H]1C[C@@H]2O", "note": "[taxol]", "values": [{"measurement": "maximum tolerated dose", "setting": "[3]; 6-hour IV infusion every 21 days", "result": 275, "unit": "mg/m^2"}, {"measurement": "dose-limiting toxicity", "setting": "[3]; 6-hour IV infusion", "result": "Myelosuppression was dose-limiting"}, {"measurement": "activity against drug-refractory ovarian cancer", "setting": "[4]", "result": "active agent"}, {"measurement": "dose-limiting toxicity", "setting": "[5]", "result": "neurotoxicity and leucopenia were dose-limiting"}]}
